In patent US20250275987A1, “MODULATORS OF INTRACELLULAR CHLORIDE CONCENTRATION FOR USE IN THE TREATMENT OF COGNITIVE DECLINE” (FONDAZIONE ISTITUTO ITALIANO DI TECNOLOGIA, priority 2022, published 2025):

Experiments:
KCC2 = molecular target: T1, KCC2 (Homo sapiens, UniProt Q9H2X9); assay: Thallium influx functional assay (FluxOR Potassium ion channel assay) in HEK293T cells transfected with KCC2; assay type: cell-based
T1 construct: expressed in transfected cells; host or cells: HEK293T
T1 sequence (Q9H2X9 1-1139): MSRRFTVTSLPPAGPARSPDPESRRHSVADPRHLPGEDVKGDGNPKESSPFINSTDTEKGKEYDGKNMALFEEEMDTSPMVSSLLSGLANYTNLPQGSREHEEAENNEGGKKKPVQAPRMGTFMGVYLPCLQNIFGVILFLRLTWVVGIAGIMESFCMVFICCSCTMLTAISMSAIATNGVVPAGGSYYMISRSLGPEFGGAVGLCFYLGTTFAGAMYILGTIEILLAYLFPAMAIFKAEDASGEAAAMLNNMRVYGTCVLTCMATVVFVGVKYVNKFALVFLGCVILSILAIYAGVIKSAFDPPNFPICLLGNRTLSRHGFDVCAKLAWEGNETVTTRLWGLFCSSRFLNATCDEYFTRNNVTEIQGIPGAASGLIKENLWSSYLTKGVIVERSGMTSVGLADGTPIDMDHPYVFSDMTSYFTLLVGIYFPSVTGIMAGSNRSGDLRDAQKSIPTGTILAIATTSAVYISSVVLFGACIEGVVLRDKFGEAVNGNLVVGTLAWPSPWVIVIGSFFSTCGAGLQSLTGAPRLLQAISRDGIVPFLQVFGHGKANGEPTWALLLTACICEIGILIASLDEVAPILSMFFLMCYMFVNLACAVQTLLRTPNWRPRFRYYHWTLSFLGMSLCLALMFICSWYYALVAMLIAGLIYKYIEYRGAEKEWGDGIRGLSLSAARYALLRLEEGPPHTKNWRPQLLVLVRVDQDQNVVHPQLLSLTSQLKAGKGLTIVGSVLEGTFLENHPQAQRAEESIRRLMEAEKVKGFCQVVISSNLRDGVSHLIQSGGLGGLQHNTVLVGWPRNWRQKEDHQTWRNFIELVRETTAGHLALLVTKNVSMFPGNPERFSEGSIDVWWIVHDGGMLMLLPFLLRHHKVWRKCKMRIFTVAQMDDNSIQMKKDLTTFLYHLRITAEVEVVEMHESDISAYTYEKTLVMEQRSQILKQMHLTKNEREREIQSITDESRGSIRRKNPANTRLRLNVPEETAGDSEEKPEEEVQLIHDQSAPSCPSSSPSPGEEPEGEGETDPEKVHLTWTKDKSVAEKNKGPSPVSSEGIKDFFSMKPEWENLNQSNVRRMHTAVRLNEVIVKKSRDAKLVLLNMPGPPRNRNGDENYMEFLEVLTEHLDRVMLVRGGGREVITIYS
Experimental: To verify the efficacy of the compounds to inhibit KCC2 in vitro a functional assay was used (FluxOR Potassium ion channel assay, Life Technologies), which measures the influx of thallium ions (replacing potassium) which permeate into the cell through KCC2. The thallium ions inside the cell are then measured using a Thallium sensor, the fluorescence of which increases after binding with thallium. In particular, the HEK293T cells were transfected with KCC2 or with the empty plasmid (mock control cells). After two days the cells were treated with the thallium sensor and in a solution without chlorine ions. After one hour the cells were washed and treated with furosemide and DMSO as negative control, again in a solution without chlorine ions and in the presence of a sodium/potassium pump inhibitor (ouabain). After twenty minutes the plates were placed in the Tecan Spark reader. The inhibitory activity of furosemide, reported in Table 1, was measured monitoring the fluorescence after thallium (TlSO4) and chlorine (NaCl) application.

elderly mice = assay: Object localization (OL) test of spatial memory in elderly mice; assay type: in vivo; conditions: 25 mg/kg i.p., vs vehicle, FIG. 3b
Text: FIG. 3 illustrates the evaluation of the efficacy of furosemide (KCC2 inhibitor) to restore impaired memory in elderly mice. a) Quantification of the discrimination index of the NOR test in young (n=13) and elderly (n=10) mice (two tailed t-test, ** P<0.01). b) Quantification of the discrimination index of the OL test in mice treated with vehicle (young, n=13, elderly, n=7) or furosemide (young, n=11, elderly, n=6) (two-way ANOVA, Tukey post hoc test, * P<0.05).
To evaluate memory capacity in the elderly mice, the novel object recognition (NOR) test was conducted. This test evaluates the long-term object recognition memory by measuring the capacity of the mice to recognize a novel object compared to familiar objects. […] Subsequently, to test the ability of the non-selective KCC2 inhibitor, furosemide, to restore poor memory, the object localization (OL) test was conducted in the presence of the drug. The object localization test evaluates spatial memory by measuring the ability of the mice to recognize the new position of a familiar object. The mice were treated with furosemide (25 mg/kg i.p.) or with the vehicle.

[1] = test system: mice C57BL/6J aged >24 months; assay: Open field test after benzodiazepine administration; assay type: in vivo; conditions: elderly mice (>24 months), 2 mg/kg in saline, vs elderly vehicle or young mice treated with diazepam
Text: FIG. 2 illustrates the evaluation of the effect of benzodiazepines in elderly mice which is indicative of a potentiated GABAergic transmission. a) Quantification of the immobility time during the open field test of mice treated with vehicle (young, n=7, elderly, n=6) or diazepam (young, n=7, elderly, n=7) (two-way ANOVA, Tukey post hoc test, *** P<0.001). b) Quantification of the distance travelled during the open field test by mice treated with vehicle (young, n=7, elderly, n=6) or diazepam (young, n=7, elderly, n=7) (two-way ANOVA, Tukey post hoc test, […], *** P<0.001).
In fact, benzodiazepines are positive allosteric modulators of GABAAR. Benzodiazepines are commonly used as anxiolytic drugs, but can produce anxiogenic or highly sedative effects depending on the polarity of GABAergic transmission. To test the reaction of elderly mice to benzodiazepines, mice C57BL/6J aged >24 months and 2-month old controls C57BL/6J were treated with diazepam (2 mg/kg in saline solution) or vehicle (2% DMSO in saline solution). The open field test was then carried out to evaluate locomotor activity and the level of anxiety of the mice tested. […] This is indicative of an over-sedation reaction of the diazepam in the elderly mice, which may reflect the presence of hyper-inhibitory GABAergic transmission. This evidence in accordance with the […] of KCC2 (FIG. 1b).

| SMILES | % KCC2 inhibition at 10 μM (KCC2; 10 μM, HEK293T cells transfected with KCC2, thallium fluorescence) | inhibition at 50 µM (KCC2; HEK-293T, 50 μM, HEK293T cells transfected with KCC2, thallium fluorescence) [%] | inhibition at 100 µM (KCC2; HEK-293T, 100 μM, HEK293T cells transfected with KCC2, thallium fluorescence) [%] | IC50 (KCC2; KCC2 inhibition in vitro) [µM] | spatial memory (discrimination index of the OL test) (elderly mice) | immobility time during the open field test ([1]; FIG. 2a) | distance travelled during the open field test ([1]; FIG. 2b) |
| --- | --- | --- | --- | --- | --- | --- | --- |
| NS(=O)(=O)c1cc(C(=O)O)c(NCc2ccco2)cc1Cl [Furosemide, furosemide] | Inactive | 39.8 ± 1.6 | 45.1 ± 6.4 | 455 | significantly restored the poor spatial memory of the elderly mice to the level of the young mice | – | – |
| CN1C(=O)CN=C(c2ccccc2)c2cc(Cl)ccc21 [diazepam] | – | – | – | – | – | significantly higher immobility time | significantly lower distance travelled |
